Experimental data published in US20220264883A1, “IMIDAZOTHIAZOLE COMPOUNDS AND METHODS FOR TREATING PLANT NEMATODE INFECTIONS” (The Governing Council of the University of Toronto, priority 2019, published 2022).
Several values for one entry are separate records, joined by “and”; a condition that tells them apart may be missing. Equal values may be shown once.

Key:
C. elegans [1] = assay: C. elegans minimum lethal concentration dose-response; format: in vivo, Caenorhabditis elegans; conditions: Caenorhabditis elegans, C. elegans viability
Protocol: (§1) Forty microliters of an HB101 bacterial suspension in liquid NGM (see above) was added to each well of a 96-well flat-bottom culture plate, after which approximately 25 synchronized L1 worms, in 10 μl of M9 buffer (see ref. 59 for the recipe), were added to each well. The synchronized L1 worms were obtained from an embryo preparation performed the previous day (see ref. 59 for the protocol). For the L1 assays, 0.5 μl of chemical solution (or DMSO alone) was immediately added to the wells using a multichannel pipette, the final DMSO concentration is 1% (v/v). The worms were incubated for 3 days at 20° C. and the number of viable animals was counted. […] Although the counts were performed after 3 days of incubation in the chemical, it was noted that the L1s were dead within 24 hours of the addition of the chemicals. For the L2/L3 assays, the worms were incubated in the absence of chemical for 1 day at 20° C. until they reached the L2/L3 stage, at which point chemical was added as described above. The worms were then allowed to incubate for 2 days at 20° C. and the number of viable animals was counted as described for the L1 assay. For the L4 assays, the worms were incubated for 2 days at 20° C. before the addition of chemicals. The L4-stage worms were then incubated in chemical for an additional day before quantifying the number of viable animals. The adult assays were performed the same way as the L4 assays, however HT115 E. coli carrying the empty dsRNA expressing vector L4440 was used in place of HB101 and the worms were cultured at 25° C. as opposed to 20° C. for the entirety of the experiment. The HT115 suspension was made by concentrating a bacterial culture, with an OD600 of ˜ 0.8, five-fold with liquid NGM containing 1 mM IPTG and 100 μg/ml carbenicillin. The HT115 cells were induced with 1 mM IPTG for one hour before concentrating with NGM.
Compounds Ia to Im, dose-response assays were performed with C. elegans. 8 of the compounds killed C. elegans with minimum lethal concentrations less than or equal to 100 μM (Table 6). Compounds Ia, Ic, and Ij were the most potently lethal nematicides in this assay, having minimum lethal concentrations of 6.25 μM and below. The positive control nematicide tioxazafen killed nematodes at 3.13 μM and above.

C. elegans [2] = assay: C. elegans viability at a single concentration (Table 3); format: in vivo; conditions: Caenorhabditis elegans; 50 μM (compound If)
Protocol: as §1
(§2) The ability of exemplary compounds of the application to kill C. elegans at 100 μM (except for compound If which was tested at 50 μM) and to affect the mobility of M. chitwoodi at 45 μM was tested as described above for M. incognita infective juveniles. Percent mobility was measured after 2 days of chronic exposure to test compounds (Table 3).

M. chitwoodi [3] = assay: Root-knot nematode M. chitwoodi mobility (Table 3); format: in vivo, Meloidogyne chitwoodi; conditions: 45 μM, 2 days of chronic exposure
Protocol: (§3) M. incognita (Kofoid & White) Chitwood Race 1 (originally isolated in Maryland) was used for all experiments, and was maintained on pepper (Capsicum annuum L.) cv. PA-136 in a greenhouse as previously described^64. Infective J2 juveniles were collected as described in ref.65. The microwell dose-response experiments were carried out similarly to previously described protocols^64, 66. In brief, 100 J2s, in 10 μL of deionized water, were added to the wells of 96-well polystyrene plates, after which 190 μL of deionized water containing dissolved chemical, or DMSO alone, was added to each well. The chemicals were tested at 45 μM, and the final concentration of DMSO in each well was 0.5% (v/v). The wells were covered with a plastic adhesive strip, and the lids of the plates were sealed with parafilm. The plates were incubated at 25° C. The mobile fraction of worms was quantified by counting the number of mobile and immobile worms after 2 days of incubation, and then dividing the number of mobile worms by the total number of worms in the well. Three technical replicates were performed for each treatment, and an average value for the mobile fraction of worms was calculated across the three replicates. The percent effectiveness at inhibiting nematode movement was calculated by dividing the average value for the chemical treatment by the average value for the DMSO control, then subtracting this value from 1, and then multiplying by 100.
M. chitwoodi race 1 (the strain commonly found in the pacific northwest of the United States) was used for all experiments, and was maintained on tomato plants (Solanum lycopersicum ‘Rutgers’) as previously described^73. The M. chitwoodi in vitro assays were performed identically to the M. incognita in vitro assays (see above).
as §2

M. incognita J2 larvae = assay: Meloidogyne incognita in vitro assays (J2 movement); format: in vivo; conditions: 45 μM, 2 days, relative to DMSO control
Protocol: as §3

M. chitwoodi [4] = assay: Meloidogyne chitwoodi infectivity assays (tomato roots in soil); format: in vivo; conditions: 45 μM in soil, 8 weeks, egg counts relative to DMSO control
Protocol: An M. incognita population originally collected from grape (Vitis vinifera) in Parlier, Calif., was used for all experiments, and they were maintained on tomato plants (Solanum lycopersicum ‘Rutgers’) as previously described^73. Infective J2 juveniles were collected as described in^73. For the infectivity assays, 90 grams of soil (1:1 sand:loam mix) was added to each cell of several 6-cell plastic garden packs. The soil was drenched with 18 mL of deionized water containing dissolved chemical or DMSO alone. 2,500 infective J2 juveniles were then added to the soil in 2 mL of deionized water, for a total water volume of 20 mL. The final concentration of the chemicals in water was 45 μM. The DMSO concentration varied from 0.1% to 0.8% (v/v) depending on the stock concentration of the chemical. The highest DMSO concentration was used as the DMSO control. The J2s were incubated in the soil and chemical for 24 hours, after which two- to three-week old tomato seedlings were transplanted into the soil (one plant per cell). […] The number of eggs from each plant root was counted on a dissection microscope using a haemocytometer, and the number of eggs per milligram of root was calculated by dividing the total egg number by the mass of the dried root material. […] An average percent effectiveness value was then calculated across the two different batches carried out on different days. […]

tomato plants = assay: Root mass of tomato plants in the infectivity assays; format: in vivo, Solanum lycopersicum; conditions: 45 μM
Protocol: An M. incognita population originally collected from grape (Vitis vinifera) in Parlier, Calif., was used for all experiments, and they were maintained on tomato plants (Solanum lycopersicum ‘Rutgers’) as previously described^73. Infective J2 juveniles were collected as described in^73. For the infectivity assays, 90 grams of soil (1:1 sand:loam mix) was added to each cell of several 6-cell plastic garden packs. The soil was drenched with 18 mL of deionized water containing dissolved chemical or DMSO alone. 2,500 infective J2 juveniles were then added to the soil in 2 mL of deionized water, for a total water volume of 20 mL. The final concentration of the chemicals in water was 45 μM. The DMSO concentration varied from 0.1% to 0.8% (v/v) depending on the stock concentration of the chemical. The highest DMSO concentration was used as the DMSO control. The J2s were incubated in the soil and chemical for 24 hours, after which two- to three-week old tomato seedlings were transplanted into the soil (one plant per cell). Two replicates were performed for each chemical treatment, and four replicates were done for the DMSO controls. The whole experiment was replicated twice, in two different batches on two different days, for a total of four replicates for each chemical treatment, and eight replicates for the DMSO controls. Inoculated plants were grown for 8 weeks in a greenhouse, as described^73, under long-day conditions (16-h photoperiod) with 26/18° C. day/night temperatures. After 8 weeks, the plants were destructively harvested. The tops were removed and discarded, and roots were gently washed with water to remove adhering soil. Eggs were extracted by placing rinsed roots in 0.6% sodium hypochlorite and agitating at 300 rpm for 3 min. Roots were then rinsed over nested 250- and 25.4-μm sieves, with eggs collected from the latter and suspended in water. Roots were dried in a 65° C. oven for at least 24 hours, after which dry roots were weighed. The number of eggs from each plant root was counted on a dissection microscope using a haemocytometer, and the number of eggs per milligram of root was calculated by dividing the total egg number by the mass of the dried root material. An average was taken across the replicates performed on the same day, and then normalized to the DMSO control average. To calculate percent effectiveness at inhibiting reproduction, the normalized values were subtracted from 1, and then multiplied by 100. An average percent effectiveness value was then calculated across the two different batches carried out on different days.

Cc1csc2nc(-c3ccc(Cl)cc3)cn12 [Compound If]
minimal effective concentration (C. elegans [1]): 25 µM and 6.2 µg/mL
viability at 50 µM (C. elegans [2]): 19.8%
RKN mobility (M. chitwoodi [3]): 0.6%
% effectiveness at reducing M. incognita movement (M. incognita J2 larvae): 3.5%
% effectiveness at inhibiting reproduction of M. chitwoodi (M. chitwoodi [4]): 46.2%
Normalized root mass (relative to DMSO control) (tomato plants): 1.3
